According to US12404283B2, “c-MYC mRNA translation modulators and uses thereof in the treatment of cancer” (Anima Biotech Inc., priority 2022, dated 2025):
Counter-ions that a name gives are not always drawn.

test system: c-Myc; assay: c-Myc immunofluorescence assay; format: cell-based, human; settings: A549 cells, 24 hours treatment, anti-c-Myc immunofluorescence
Method in brief: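 A549 cells grown 48 h, exposed 24 h to rising compound concentrations, then fixed, permeabilised and stained for c-Myc plus DAPI. Nuclear-segmented c-Myc fluorescence quantified by high-content imaging at 20×; EC50 from logistic dose–response fits.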

Structure (SMILES)	Myc Efficacy (−LogEC50)
CNC(=O)c1ccc(-c2cn3c(n2)sc2cc(C(=O)NCCOC)ccc23)cc1 [compound 201, N-(2-methoxyethyl)-2-(4-(methylcarbamoyl)phenyl) benzo[d]imidazo[2,1-b]thiazole-7-carboxamide]	+ (+ >3 and <5)
O=C(NC1CCOCC1)c1ccc2c(c1)sc1nc(-c3ccc([C@H]4C[C@H](O)CN4)cc3F)cn12 (relative stereo) [Compound 538, 2-(2-fluoro-4-((trans)-4-hydroxypyrrolidin-2-yl)phenyl)-N-(tetrahydro-2H-pyran-4-yl)benzo[d]imidazo[2,1-b]thiazole-7-carboxamide]	+++ (+++ ≥6)
Cc1cccc(-c2cn3c(n2)sc2cc(NC(=O)C4CCNCC4)ccc23)c1 [compound 168, N-(2-(m-tolyl)benzo[d]imidazo[2,1-b]thiazol-7-yl)piperidine-4-carboxamide]	++ (++ ≥5 and <6)
O=C(NCCCN1CCC(F)CC1)c1ccc2c(c1)sc1nc(-c3ccc(C4COCCN4)cc3F)cn12 (centres unmarked) [Compound 481, 2-(2-fluoro-4-(morpholin-3-yl)phenyl)-N-(3-(4-fluoropiperidin-1-yl)propyl)benzo[d]imidazo[2,1-b]thiazole-7-carboxamide]	+++ (+++ ≥6)
CNC(=O)c1ccc(-c2cn3c(n2)sc2cc(C(=O)N[C@H]4CCCCN(C)C4=O)ccc23)cc1 [compound 228, (S)-N-(1-methyl-2-oxoazepan-3-yl)-2-(4-(methylcarbamoyl)phenyl) benzo[d]imidazo[2,1-b]thiazole-7-carboxamide]	+ (+ >3 and <5)
CCN(CC)CCCNC(=O)c1ccc2c(c1)sc1nc(-c3cccc(C(C)C)c3)cn12 [compound 169, N-(3-(diethylamino)propyl)-2-(3-isopropylphenyl)benzo[d] imidazo[2,1-b]thiazole-7-carboxamide]	++ (++ ≥5 and <6)
CNC(=O)c1ccc(-c2cn3c(n2)sc2cc(C(=O)NCC4CC4(F)F)ccc23)cc1 (centres unmarked) [compound 259, N-((2,2-difluorocyclopropyl)methyl)-2-(4-(methylcarbamoyl)phenyl) benzo[d]imidazo[2,1-b]thiazole-7-carboxamide]	+ (+ >3 and <5)
O=C(N[C@@H]1CCOC1)c1ccc2c(c1)sc1nc(-c3ccc(C4CCCN4)cc3F)cn12 (stereo partly drawn) [524R, 2-(2-fluoro-4-(pyrrolidin-2-yl)phenyl)-N-((R)-tetrahydrofuran-3-yl)benzo[d]imidazo[2,1-b]thiazole-7-carboxamide]	++ (++ ≥5 and <6)
O=C(NCCCN1CCCCC1)c1ccc2c(c1)sc1nc(-c3ccc([C@H]4CCCN4)cc3)cn12 [compound 412, (R)-N-(3-(piperidin-1-yl)propyl)-2-(4-(pyrrolidin-2-yl)phenyl)benzo[d]imidazo [2,1-b]thiazole-7-carboxamide]	+++ (+++ ≥6)
CNC(=O)c1ccc(-c2cn3c(n2)sc2cc(C(=O)NCCCn4ccnc4)ccc23)cc1 [compound 235, N-(3-(1H-imidazol-1-yl)propyl)-2-(4-(methylcarbamoyl)phenyl) benzo[d]imidazo[2,1-b]thiazole-7-carboxamide]	+ (+ >3 and <5)
CNC(=O)c1ccc(-c2cn3c(n2)sc2cc(C(=O)NCCN4CC5(COC5)C4)ccc23)cc1 [compound 183, N-(2-(2-oxa-6-azaspiro[3.3]heptan-6-yl)ethyl)-2-(4-(methylcarbamoyl)phenyl) benzo[d]imidazo[2,1-b]thiazole-7-carboxamide]	+ (+ >3 and <5)
O=C1CC[C@@H](c2ccc(-c3cn4c(n3)sc3cc(C(=O)NCCCN5CCC(F)CC5)ccc34)c(F)c2)N1 [Compound 432S, (S)-2-(2-fluoro-4-(5-oxopyrrolidin-2-yl)phenyl)-N-(3-(4-fluoropiperidin-1-yl)propyl)benzo[d]imidazo[2,1-b]thiazole-7-carboxamide]	+++ (+++ ≥6)
NCc1ccc(-c2nc3sc4cc(C(=O)NCCCN5CCCCC5)ccc4n3n2)cc1 [compound 392, 2-(4-(aminomethyl)phenyl)-N-(3-(piperidin-1-yl)propyl)benzo[4,5]thiazolo [3,2-b][1,2,4]triazole-6-carboxamide]	+++ (+++ ≥6)
NCc1c(F)cc(-c2cn3c(n2)sc2cc(C(=O)NCCCN4CCCCC4)ccc23)cc1F [compound 383, 2-(4-(aminomethyl)-3,5-difluorophenyl)-N-(3-(piperidin-1-yl)propyl)benzo[d]imidazo [2,1-b]thiazole-7-carboxamide]	++ (++ ≥5 and <6)
NC(=O)c1ccc2c(c1)sc1nc(-c3ccc(C4CCCN4)cc3F)cn12 (centres unmarked) [Compound 492, 2-(2-fluoro-4-(pyrrolidin-2-yl)phenyl)benzo[d]imidazo[2,1-b]thiazole-7-carboxamide]	+++ (+++ ≥6)
CCN(CC)CCCNC(=O)c1ccc2c(c1)sc1nc(-c3ccncn3)cn12 [compound 330, N-(3-(diethylamino)propyl)-2-(pyrimidin-4-yl)benzo[d]imidazo[2,1-b]thiazole-7-carboxamide]	+ (+ >3 and <5)

Structure (SMILES)	Myc Efficacy (−LogEC50)
CN1CCC(NC(=O)c2ccc3c(c2)sc2nc(-c4ccc(C5CCNCC5O)cc4F)cn23)CC1 (centres unmarked) [compound 546, 2-(2-fluoro-4-(3-hydroxypiperidin-4-yl)phenyl)-N-(1-methylpiperidin-4-yl)benzo[d]imidazo[2,1-b]thiazole-7-carboxamide]	+++ (+++ ≥6)
CCN(CC)CCCNC(=O)c1ccc2c(c1)sc1nc(-c3ccccc3C)cn12 [compound 123, N-(3-(diethylamino)propyl)-2-(o-tolyl)benzo[d]imidazo [2,1-b]thiazole-7-carboxamide]	++ (++ ≥5 and <6)
Cc1ccc(-c2cn3c(n2)sc2cc(C(=O)NCCCN)ccc23)cc1 [compound 115, N-(3-aminopropyl)-2-(p-tolyl)benzo[d]imidazo[2,1-b]thiazole-7-carboxamide]	+ (+ >3 and <5)
CCN(CC)CCCNC(=O)c1ccc2c(c1)sc1nc(-c3ccc(CN)cc3)nn12 [compound 348, 2-(4-(aminomethyl)phenyl)-N-(3-(diethylamino)propyl)benzo [4,5]thiazolo[3,2-b][1,2,4]triazole-6-carboxamide]	++ (++ ≥5 and <6)
O=C(NCCCN1CCC(F)CC1)c1ccc2c(c1)sc1nc(-c3cc4c(cc3F)CCNC4)cn12 [Compound 600, 2-(6-fluoro-1,2,3,4-tetrahydroisoquinolin-7-yl)-N-(3-(4-fluoropiperidin-1-yl)propyl)benzo[d]imidazo[2,1-b]thiazole-7-carboxamide dihydrochloride]	+++ (+++ ≥6)
CNC(=O)c1ccc(-c2cn3c(n2)sc2cc(C(=O)NCc4ccccc4)ccc23)cc1 [compound 275, N-benzyl-2-(4-(methylcarbamoyl)phenyl) benzo[d]imidazo[2,1-b]thiazole-7-carboxamide]	− (− ≤3)
CNC(=O)c1ccc(-c2cn3c(n2)sc2cc(C(=O)N[C@@H](C)CN)ccc23)cc1 [compound 220, (S)-N-(1-aminopropan-2-yl)-2-(4-(methylcarbamoyl)phenyl) benzo[d]imidazo[2,1-b]thiazole-7-carboxamide]	+ (+ >3 and <5)
NCc1ccc(-c2cn3c(n2)sc2cc(C(=O)NCCCN4CCCCC4)ccc23)cc1 [compound 290, 2-(4-(aminomethyl)phenyl)-N-(3-(piperidin-1-yl)propyl)benzo[d]imidazo [2,1-b]thiazole-7-carboxamide]	+++ (+++ ≥6)
CN[C@H]1C[C@H](NC(=O)c2ccc3c(c2)sc2nc(-c4cccc(C)c4)cn23)C1 [compound 158, N-((1r,3r)-3-(methylamino)cyclobutyl)-2-(m-tolyl)benzo[d]imidazo[2,1-b]thiazole-7-carboxamide formate]	++ (++ ≥5 and <6)
CCN(CC)CCCNC(=O)c1ccc2c(c1)sc1nc(-c3ccc(C4(N)CC4)cc3)nn12 [compound 397, 2-(4-(1-aminocyclopropyl)phenyl)-N-(3-(diethylamino)propyl)benzo [4,5]thiazolo[3,2-b][1,2,4]triazole-6-carboxamide]	++ (++ ≥5 and <6)
CNC(=O)c1ccc(-c2cn3c(n2)sc2cc(C(=O)N[C@@H](C)COC)ccc23)cc1 [compound 186, (S)-N-(1-methoxypropan-2-(methylcarbamoyl)phenyl) benzo[d]imidazo[2,1-b]thiazole-7-carboxamide]	+ (+ >3 and <5)
CNC(=O)c1ccc(-c2cn3c(n2)sc2cc(C(=O)NCC4(O)COC4)ccc23)cc1 [compound 195, N-((3-hydroxyoxetan-3-yl)methyl)-2-(4-(methylcarbamoyl)phenyl) benzo[d]imidazo[2,1-b]thiazole-7-carboxamide]	− (− ≤3)
NC1(c2ccc(-c3nc4sc5cc(C(=O)NCCCN6CCCCC6)ccc5n4n3)cc2)CC1 [compound 398, 2-(4-(1-aminocyclopropyl)phenyl)-N-(3-(piperidin-1-yl)propyl)benzo[4,5]thiazolo [3,2-b][1,2,4]triazole-6-carboxamide]	++ (++ ≥5 and <6)
C#CCCC1(CCN(CC)CCCNC(=O)c2ccc3c(c2)sc2nc(-c4ccc(C(=O)NC)cc4)cn23)N=N1 [compound 323, N-(3-((2-(3-(but-3-yn-1-yl)-3H-diazirin-3-yl)ethyl)(ethyl)amino)propyl)-2-(4-(methylcarbamoyl)phenyl) benzo[d]imidazo[2,1-b]thiazole-7-carboxamide]	+++ (+++ ≥6)
CNC(=O)c1ccc(-c2cn3c(n2)sc2cc(C(=O)NCCC4CCCN4C)ccc23)cc1 (centres unmarked) [compound 257, 2-(4-(methylcarbamoyl)phenyl)-N-(2-(1-methylpyrrolidin-2-yl)ethyl)benzo[d]imidazo [2,1-b]thiazole-7-carboxamide]	++ (++ ≥5 and <6)
CNC(=O)c1ccc(-c2cn3c(n2)sc2cc(C(=O)NCC[C@@H]4CCCN4C)ccc23)cc1 [compound 303, (S)-2-(4-(methylcarbamoyl)phenyl)-N-(2-(1-methylpyrrolidin-2-yl)ethyl)benzo[d]imidazo [2,1-b]thiazole-7-carboxamide]	+ (+ >3 and <5)
